Measurements as given in ChEMBL document CHEMBL1143202.
Calls of active or inactive are those of the source. The calls are words filed in the database; no cut-off is given here.

Experiments:
Rattus norvegicus [1] = species: Rattus norvegicus; assay: Inhibition of NADH-cytochrome c reductase in Wistar Albino rat liver mitochondria at 100 uM relative to control; set-up: scale not given: the % may be the effect or the level left
Rattus norvegicus [2] = species: Rattus norvegicus; assay: Inhibition of NADH-cytochrome c reductase in Wistar Albino rat liver mitochondria at 200 uM relative to control; set-up: scale not given: the % may be the effect or the level left
Rattus norvegicus [3] = species: Rattus norvegicus; assay: Inhibition of succinate oxidase in Wistar Albino rat liver mitochondria at 25 uM relative to control; set-up: scale not given: the % may be the effect or the level left
Rattus norvegicus [4] = species: Rattus norvegicus; assay: Inhibition of succinate oxidase in Wistar Albino rat liver mitochondria at 50 uM relative to control; set-up: scale not given: the % may be the effect or the level left
Rattus norvegicus [5] = species: Rattus norvegicus; assay: Inhibition of succinate oxidase in Wistar Albino rat liver mitochondria at 75 uM relative to control; set-up: scale not given: the % may be the effect or the level left
Rattus norvegicus [6] = species: Rattus norvegicus; assay: Inhibition of succinate oxidase in Wistar Albino rat liver mitochondria at 100 uM relative to control; set-up: scale not given: the % may be the effect or the level left
Rattus norvegicus [7] = species: Rattus norvegicus; assay: Inhibition of succinate oxidase in Wistar Albino rat liver mitochondria at 200 uM relative to control; set-up: scale not given: the % may be the effect or the level left
Rattus norvegicus [8] = species: Rattus norvegicus; assay: Inhibition of succinate dehydrogenase in Wistar Albino rat liver mitochondria at 25 uM relative to control; set-up: scale not given: the % may be the effect or the level left
Rattus norvegicus [9] = species: Rattus norvegicus; assay: Inhibition of succinate dehydrogenase in Wistar Albino rat liver mitochondria at 50 uM relative to control; set-up: scale not given: the % may be the effect or the level left
Rattus norvegicus [10] = species: Rattus norvegicus; assay: Inhibition of succinate dehydrogenase in Wistar Albino rat liver mitochondria at 75 uM relative to control; set-up: scale not given: the % may be the effect or the level left
Rattus norvegicus [11] = species: Rattus norvegicus; assay: Inhibition of succinate dehydrogenase in Wistar Albino rat liver mitochondria at 100 uM relative to control; set-up: scale not given: the % may be the effect or the level left
Rattus norvegicus [12] = species: Rattus norvegicus; assay: Inhibition of succinate dehydrogenase in Wistar Albino rat liver mitochondria at 200 uM relative to control; set-up: scale not given: the % may be the effect or the level left
Rattus norvegicus [13] = species: Rattus norvegicus; assay: Inhibition of succinate-cytochrome c reductase in Wistar Albino rat liver mitochondria at 50 uM relative to control; set-up: scale not given: the % may be the effect or the level left
Rattus norvegicus [14] = species: Rattus norvegicus; assay: Inhibition of succinate-cytochrome c reductase in Wistar Albino rat liver mitochondria at 75 uM relative to control; set-up: scale not given: the % may be the effect or the level left
Rattus norvegicus [15] = species: Rattus norvegicus; assay: Inhibition of succinate-cytochrome c reductase in Wistar Albino rat liver mitochondria at 100 uM relative to control; set-up: scale not given: the % may be the effect or the level left
Rattus norvegicus [16] = species: Rattus norvegicus; assay: Inhibition of succinate-cytochrome c reductase in Wistar Albino rat liver mitochondria at 200 uM relative to control; set-up: scale not given: the % may be the effect or the level left
Rattus norvegicus [17] = species: Rattus norvegicus; assay: Inhibition of cytochrome c oxidase in Wistar Albino rat liver mitochondria at 25 uM relative to control; set-up: scale not given: the % may be the effect or the level left
Rattus norvegicus [18] = species: Rattus norvegicus; assay: Inhibition of cytochrome c oxidase in Wistar Albino rat liver mitochondria at 50 uM relative to control; set-up: scale not given: the % may be the effect or the level left
Rattus norvegicus [19] = species: Rattus norvegicus; assay: Inhibition of cytochrome c oxidase in Wistar Albino rat liver mitochondria at 75 uM relative to control; set-up: scale not given: the % may be the effect or the level left
Rattus norvegicus [20] = species: Rattus norvegicus; assay: Inhibition of cytochrome c oxidase in Wistar Albino rat liver mitochondria at 100 uM relative to control; set-up: scale not given: the % may be the effect or the level left
Liver [21] = assay: Reduction of cytochrome c in rat liver mitochondria in presence of catalase at 200 uM; type: functional; set-up: scale not given: the % may be the effect or the level left
Rattus norvegicus [22] = species: Rattus norvegicus; assay: Inhibition of cytochrome c oxidase in Wistar Albino rat liver mitochondria at 200 uM relative to control; set-up: scale not given: the % may be the effect or the level left
Rattus norvegicus [23] = species: Rattus norvegicus; assay: Inhibition of ATPase in Wistar Albino rat livers disrupted mitochondria at 25 uM relative to control; set-up: scale not given: the % may be the effect or the level left
Rattus norvegicus [24] = species: Rattus norvegicus; assay: Inhibition of ATPase in Wistar Albino rat livers disrupted mitochondria at 50 uM relative to control; set-up: scale not given: the % may be the effect or the level left
Rattus norvegicus [25] = species: Rattus norvegicus; assay: Inhibition of ATPase in Wistar Albino rat livers disrupted mitochondria at 75 uM relative to control; set-up: scale not given: the % may be the effect or the level left
Rattus norvegicus [26] = species: Rattus norvegicus; assay: Inhibition of ATPase in Wistar Albino rat livers disrupted mitochondria at 100 uM relative to control; set-up: scale not given: the % may be the effect or the level left
Rattus norvegicus [27] = species: Rattus norvegicus; assay: Inhibition of ATPase in Wistar Albino rat livers disrupted mitochondria at 200 uM relative to control; set-up: scale not given: the % may be the effect or the level left
Rattus norvegicus [28] = species: Rattus norvegicus; assay: Inhibition of ATPase in Wistar Albino rat livers intact mitochondria at 25 uM relative to control; set-up: scale not given: the % may be the effect or the level left
Liver [29] = assay: Reduction of cytochrome c in rat liver mitochondria in presence of NADH at 200 uM; type: functional
Rattus norvegicus [30] = species: Rattus norvegicus; assay: Inhibition of ATPase in Wistar Albino rat livers intact mitochondria at 50 uM relative to control; set-up: scale not given: the % may be the effect or the level left
Rattus norvegicus [31] = species: Rattus norvegicus; assay: Inhibition of ATPase in Wistar Albino rat livers intact mitochondria at 75 uM relative to control; set-up: scale not given: the % may be the effect or the level left
Rattus norvegicus [32] = species: Rattus norvegicus; assay: Inhibition of ATPase in Wistar Albino rat livers intact mitochondria at 100 uM relative to control; set-up: scale not given: the % may be the effect or the level left
Rattus norvegicus [33] = species: Rattus norvegicus; assay: Inhibition of ATPase in Wistar Albino rat livers intact mitochondria at 200 uM relative to control; set-up: scale not given: the % may be the effect or the level left
Rattus norvegicus [34] = species: Rattus norvegicus; assay: Inhibition of ATPase in Wistar Albino rat livers intact mitochondria at 25 uM in presence of FCCP relative to control; set-up: scale not given: the % may be the effect or the level left
Rattus norvegicus [35] = species: Rattus norvegicus; assay: Inhibition of ATPase in Wistar Albino rat livers intact mitochondria at 50 uM in presence of FCCP relative to control; set-up: scale not given: the % may be the effect or the level left
Rattus norvegicus [36] = species: Rattus norvegicus; assay: Inhibition of ATPase in Wistar Albino rat livers intact mitochondria at 75 uM in presence of FCCP relative to control; set-up: scale not given: the % may be the effect or the level left
Rattus norvegicus [37] = species: Rattus norvegicus; assay: Inhibition of ATPase in Wistar Albino rat livers intact mitochondria at 100 uM in presence of FCCP relative to control; set-up: scale not given: the % may be the effect or the level left
Rattus norvegicus [38] = species: Rattus norvegicus; assay: Inhibition of ATPase in Wistar Albino rat livers intact mitochondria at 200 uM in presence of FCCP relative to control; set-up: scale not given: the % may be the effect or the level left
Liver [39] = assay: Reduction of cytochrome c in rat liver mitochondria in presence of EDTA at 200 uM; type: functional
Liver [40] = assay: Reduction of cytochrome c in rat liver mitochondria in presence of SOD at 200 uM; type: functional; set-up: scale not given: the % may be the effect or the level left
Liver [41] = assay: Reduction of cytochrome c in rat liver mitochondria in presence of deferoxamine at 200 uM; type: functional
Liver [42] = assay: Reduction of cytochrome c in rat liver mitochondria in presence of SOD and catalase at 200 uM; type: functional

COc1c(O)cc2oc(-c3ccc(O)c(O)c3)cc(=O)c2c1O
Activity (Rattus norvegicus [1]): 40%
Activity (Rattus norvegicus [2]): 19%
Activity (Rattus norvegicus [3]): 87%
Activity (Rattus norvegicus [4]): 83%
Activity (Rattus norvegicus [5]): 86%
Activity (Rattus norvegicus [6]): 77%
Activity (Rattus norvegicus [7]): 77%
Activity (Rattus norvegicus [8]): 71%
Activity (Rattus norvegicus [9]): 69%
Activity (Rattus norvegicus [10]): 78%
Activity (Rattus norvegicus [11]): 50%
Activity (Rattus norvegicus [12]): 51%
Activity (Rattus norvegicus [13]): 23%
Activity (Rattus norvegicus [14]): 12%
Activity (Rattus norvegicus [15]): 29%
Activity (Rattus norvegicus [16]): 18%
Activity (Rattus norvegicus [17]): 98%
Activity (Rattus norvegicus [18]): 104%
Activity (Rattus norvegicus [19]): 102%
Activity (Rattus norvegicus [20]): 96%
Activity (Liver [21]): 15%
Activity (Rattus norvegicus [22]): 82%
Activity (Rattus norvegicus [23]): 103%
Activity (Rattus norvegicus [24]): 102%
Activity (Rattus norvegicus [25]): 105%
Activity (Rattus norvegicus [26]): 94%
Activity (Rattus norvegicus [27]): 90%
Activity (Rattus norvegicus [28]): 99%
Activity (Liver [29]): Active
Activity (Rattus norvegicus [30]): 94%
Activity (Rattus norvegicus [31]): 98%
Activity (Rattus norvegicus [32]): 97%
Activity (Rattus norvegicus [33]): 101%
Activity (Rattus norvegicus [34]): 93%
Activity (Rattus norvegicus [35]): 90%
Activity (Rattus norvegicus [36]): 97%
Activity (Rattus norvegicus [37]): 100%
Activity (Rattus norvegicus [38]): 102%
Activity (Liver [39]): Active
Activity (Liver [40]): 46%
Activity (Liver [41]): inactive
Activity (Liver [42]): inactive
